Measured values from patent publication US5567692A, “9-[(substituted glycyl) amido)]-6-demethyl-6-deoxytetracyclines” (priority 1995, dated 1996).
≈ marks a conversion by molar mass, not a printed value. Counter-ions that a name gives are not always drawn. Like-named read-outs stand apart in the source and are kept apart here.

What was measured:
[1] = system: S. aureus IVES 1983; experiment: MIC, agar dilution; format: cell-based; settings: Staphylococcus aureus, IVES1983, 18 h
[2] = system: S. aureus UBMS 88-4; experiment: MIC, agar dilution; format: cell-based; settings: S. aureus UBMS 88-4
[3] = system: Ps. aeruginosa ATCC 27853; experiment: MIC, agar dilution; format: cell-based; settings: Ps. aeruginosa ATCC 27853
[4] = system: E. coli UBMS 89-2 Tet sens.; experiment: MIC, agar dilution; format: cell-based; settings: E. coli UBMS 89-2 Tet sens.
[5] = system: S. aureus UBMS 90-3; experiment: MIC, agar dilution; format: cell-based; settings: S. aureus UBMS 90-3
[6] = system: S. aureus ATCC 29213; experiment: MIC, agar dilution; format: cell-based; settings: Staphylococcus aureus, ATCC29213, 18 h, S. aureus ATCC 29213; read-out: MIC
[7] = system: Staphylococcus aureus strain Smith (tetracycline sensitive); experiment: Acute lethal infection in mice, S. aureus Smith; format: in vivo; settings: for ED50: mice, S. aureus Smith (Sens), 7 day survival, 10080 min
[8] = system: S. aureus ROSE (MP); experiment: MIC, agar dilution; format: cell-based; settings: Staphylococcus aureus, 18 h
[9] = system: E. coli UBMS 88-1 Tet B; experiment: microbe, parasite or virus in culture; format: cell-based
[10] = system: E. coli MC 4100 TNIOC Tet B; experiment: microbe, parasite or virus in culture; format: cell-based
[11] = system: E. coli J2175; experiment: MIC, agar dilution; format: cell-based
[12] = system: S. aureus UBMS 88-7 Tet K; experiment: microbe, parasite or virus in culture; format: cell-based
[13] = system: Enterococcus 12201; experiment: MIC, agar dilution; format: cell-based; settings: Enterococcus 12201
[14] = system: S. aureus IVES 2943; experiment: MIC, agar dilution; format: cell-based
[15] = system: E. coli J3272 Tet C; experiment: microbe, parasite or virus in culture; format: cell-based
[16] = system: E. coli PRP1 Tet A; experiment: microbe, parasite or virus in culture; format: cell-based
[17] = system: S. aureus NEMC 8769; experiment: MIC, agar dilution; format: cell-based; settings: Staphylococcus aureus, NEMC8769, 18 h
[18] = system: S. marcescens FPOR 8733; experiment: MIC, agar dilution; format: cell-based; settings: Serratia marcescens, FPOR8733, 18 h
[19] = system: S. aureus SMITH (MP); experiment: MIC, agar dilution; format: cell-based; settings: S. aureus SMITH (MP)
[20] = system: E. faecalis ATCC 29212; experiment: MIC, agar dilution; format: cell-based; settings: E. faecalis ATCC 29212
[21] = system: X. maltophilia NEMC 87210; experiment: MIC, agar dilution; format: cell-based
[22] = system: E. coli BAJ9003 IMP MUT; experiment: microbe, parasite or virus in culture; format: cell-based; settings: E. coli BAJ9003 IMP MUT
[23] = system: S. aureus UBMS 90-1 Tet M; experiment: microbe, parasite or virus in culture; format: cell-based; settings: Staphylococcus aureus, UBMS901TETM, 18 h, S. aureus UBMS 90-1 Tet M
[24] = system: E. coli #311 (MP); experiment: MIC, agar dilution; format: cell-based; settings: Escherichia coli, 18 h
[25] = system: E. coli UBMS 90-5; experiment: microbe, parasite or virus in culture; format: cell-based; settings: Escherichia coli, UBMS905, 18 h
[26] = system: E. coli J3272 Tet D; experiment: microbe, parasite or virus in culture; format: cell-based; settings: Escherichia coli, J3272TETD, 18 h
[27] = system: E. coli MC 4100 Tet sens.; experiment: MIC, agar dilution; format: cell-based; settings: Escherichia coli, 18 h
[28] = system: S. hemolyticus AVHAH 88-3; experiment: MIC, agar dilution; format: cell-based; settings: Streptococcus pyogenes, AVHAH883, 18 h
[29] = system: E. coli ATCC 25922; experiment: MIC, agar dilution; format: cell-based; settings: Escherichia coli, ATCC25922, 18 h
[30] = system: S. aureus UBMS 88-5 Tet M; experiment: microbe, parasite or virus in culture; format: cell-based; settings: Staphylococcus aureus, UBMS885TETM, 18 h, S. aureus UBMS 88-5 Tet M
[31] = system: E. coli UBMS 90-4 Tet M; experiment: microbe, parasite or virus in culture; format: cell-based; settings: Escherichia coli, UBMS904TETM, 18 h, E. coli UBMS 90-4 Tet M

CN(C)CC(=O)Nc1ccc2c(c1O)C(=O)C1=C(O)[C@]3(O)C(=O)C(C(N)=O)=C(O)[C@@H](N(C)C)C3CC1C2 (stereo partly drawn) [BB, [4S-(4alpha,12aalpha)]-4-(Dimethylamino)-9-[[(dimethylamino)acetyl]amino]-1,4,4a,5,5a,6,11,12a-octahydro-3,10,12,12a-tetrahydroxy-1,11-dioxo-2-naphthacenecarboxamide]
MIC ([1]; S. aureus IVES 1983, read-out: MIC): 0.5 µg/mL (≈ 0.972 µM)
MIC [2]: 0.06 µg/mL (≈ 0.117 µM)
MIC [3]: 8 µg/mL (≈ 15.5 µM)
MIC [4]: 0.25 µg/mL (≈ 0.486 µM)
MIC [5]: 0.06 µg/mL (≈ 0.117 µM)
MIC [6]: 0.3 µg/mL (≈ 0.583 µM)
ED50 ([7]; Intraveneous): 0.5 to 1 mg/kg
ED50 ([7]; Oral): 8 to 16 mg/kg
in vivo activity (in words) ([7]; tested intravenously against the minocycline sensitive organism S. aureus Smith): very good in vivo activity
MIC [8]: 2 µg/mL (≈ 3.89 µM)
MIC ([9]; E. coli UBMS 88-1 Tet B): 0.25 µg/mL (≈ 0.486 µM)
MIC ([10]; E. coli MC 4100 TNIOC Tet B): 0.25 µg/mL (≈ 0.486 µM)
MIC [11]: 0.25 µg/mL (≈ 0.486 µM)
MIC [12]: 0.5 µg/mL (≈ 0.972 µM)
MIC [13]: 0.06 µg/mL (≈ 0.117 µM)
MIC ([14]; S. aureus IVES 2943): 0.5 µg/mL (≈ 0.972 µM)
MIC [15]: 0.25 µg/mL (≈ 0.486 µM)
MIC [16]: 0.5 µg/mL (≈ 0.972 µM)
MIC ([17]; read-out: MIC): < 0.015 µg/mL
MIC [18]: 2 µg/mL (≈ 3.89 µM)
MIC [19]: 0.06 µg/mL (≈ 0.117 µM)
MIC [20]: 0.06 µg/mL (≈ 0.117 µM)
MIC ([21]; X. maltophilia NEMC 87210): 1 µg/mL (≈ 1.94 µM)
MIC [22]: no growth

CCCCCNCC(=O)Nc1ccc2c(c1O)C(=O)C1=C(O)[C@]3(O)C(=O)C(C(N)=O)=C(O)[C@@H](N(C)C)C3CC1C2 (stereo partly drawn) [K, [4S-(4alpha,12aalpha)]-4-(Dimethylamino)-1,4,4a,5,5a,6,11,12a-octahydro-3,10,12,12a-tetrahydroxy-1,11-dioxo-9-[[(pentylamino)acetyl]amino]-2-naphthacenecarboxamide monohydrochloride]
MIC [1]: 2 µg/mL
MIC ([3]; Pseudomonas aeruginosa, ATCC27853, 18 h, read-out: MIC): 32 µg/mL
MIC [23]: 0.5 µg/mL
MIC [24]: 0.5 µg/mL
MIC [6]: 0.5 µg/mL
MIC ([8]; read-out: MIC): 8 µg/mL
MIC [25]: 0.5 µg/mL
MIC ([9]; Escherichia coli, UBMS881TETB, 18 h): 1 µg/mL
MIC ([10]; Escherichia coli, 18 h): 0.5 µg/mL
MIC ([11]; Escherichia coli, 18 h, read-out: MIC): 0.5 µg/mL
MIC [26]: 0.5 µg/mL
MIC [27]: 0.5 µg/mL
MIC ([12]; Staphylococcus aureus, UBMS887TETK, 18 h): 2 µg/mL
MIC [28]: 2 µg/mL
MIC [29]: 0.5 µg/mL
MIC ([14]; Staphylococcus aureus, IVES2943, 18 h): 2 µg/mL
MIC [30]: 0.5 µg/mL
MIC ([15]; Escherichia coli, J3272TETC, 18 h): 0.5 µg/mL
MIC ([16]; Escherichia coli, PRP1TETA, 18 h): 0.5 µg/mL
MIC [17]: 0.12 µg/mL
MIC ([18]; read-out: MIC): 4 µg/mL
MIC [31]: 0.5 µg/mL
MIC ([21]; Stenotrophomonas maltophilia, NEMC87210, 18 h): 1 µg/mL
